Earlier results on 6 compounds are cited in patent US9278101B2, “Ophthalmologic irrigation solutions and method” (Omeros Corporation, priority 2002, dated 2016).

For data set [1], the system named is non-adrenoceptor imidazoline binding sites.
Data set [2] concerns alpha-1 receptor subtypes. To be noted: three alpha-1 receptor subtypes.
The conditions of data set [3]: in vivo.

On to `Brc1c(NC2=NCCN2)ccc2nccnc12` [UK14304, 5-bromo-N-(4,5-dihydro-1H-imidazol-2-yl)-6-quinoxalinamine], for which the “affinity for non-adrenoceptor imidazoline binding sites” value in data set [1] was “high affinity (nanomolar)”.
On to `Clc1cccc(Cl)c1N=C1NCCN1` [clonidine], for which, in data set [1], the “affinity for non-adrenoceptor imidazoline binding sites” value is listed as “high affinity (nanomolar)”.
Turning to `c1ccc2c(c1)OCC(C1=NCCN1)O2` (stereo not drawn) [idazoxan], the “affinity for non-adrenoceptor imidazoline binding sites” value in data set [1] is reported as “high affinity (nanomolar)”.
Take `Cc1cc(C(C)(C)C)c(O)c(C)c1CC1=NCCN1` [oxymetazoline]: in data set [1], the “affinity for non-adrenoceptor imidazoline binding sites” value is given as “high affinity (nanomolar)”.
On to `COc1cc2nc(N3CCN(C(=O)c4ccco4)CC3)nc(N)c2cc1OC` [prazosin], for which the “affinity for alpha-1 receptor subtypes” value in data set [2] was “high affinity (subnanomolar)”.
In the case of tropicamide, the half-life (as a rule, how long it takes for the measured level to halve) in data set [3] was 4 to 6 h.
